Reference: patent US20100172854A1, “ANTIBACTERIAL FORMULATIONS” (priority 2007, published 2010)
Converted amounts (≈) assume the structure as drawn.

Tests used:
[1] = tested on: Prevotella nigrescens ATCC 33563; assay: MBC assay; type: cell-based
Procedure: (§1) This assay, normally carried out after an MIC assay, determines the minimum concentration of a compound that is lethal to the micro-organism being tested.
(§2) These samples were then individually sub-cultured on antibiotic-free agar medium, under the incubation conditions described above. Following incubation they were examined visually for microbial growth.

[2] = tested on: Corynebacterium mucifaciens ATCC 700355; assay: MBC assay; type: cell-based; conditions: ATCC700355
Procedure: as §1, §2

[3] = tested on: Streptococcus pyogenes ATCC 12344; assay: MBC assay; type: cell-based
Procedure: as §1, §2

[4] = tested on: Listeria monocytogenes ATCC 15313; assay: MBC assay; type: cell-based
Procedure: as §1, §2

[5] = tested on: Actinomyces naeslundii ATCC 12104; assay: MBC assay; type: cell-based
Procedure: as §1, §2

[6] = tested on: Gardnerella vaginalis ATCC 14018; assay: MBC assay; type: cell-based
Procedure: as §1, §2

[7] = tested on: Enterococcus faecalis ATCC 29212; assay: MBC assay; type: cell-based; conditions: ATCC29212
Procedure: as §1, §2

[8] = tested on: Clostridium difficile ATCC 7000057; assay: MBC assay; type: cell-based
Procedure: as §1, §2

[9] = tested on: Clostridium sporogenes ATCC 3584; assay: MBC assay; type: cell-based
Procedure: as §1, §2

[10] = tested on: Bacillus cereus ATCC 11778; assay: MBC assay; type: cell-based
Procedure: as §1, §2

[11] = tested on: Streptococcus sobrinus ATCC 33478; assay: MBC assay; type: cell-based
Procedure: as §1, §2

[12] = tested on: Staphylococcus aureus ATCC 29213; assay: MIC assay; type: cell-based; conditions: ATCC29213, S. aureus ATCC 29213
Procedure: (§3) The staphylococci were cultured and maintained on Mueller-Hinton Medium (agar and broth) at pH 7.2; cultures were incubated aerobically at 37° C. for 19-20 hours.
(§4) This is a standard international method for quantitatively assessing the antimicrobial activity of a compound in a liquid medium. The method used a sterile 96-well microtitre plate, capable of holding about 200 μl of liquid per well. The wells contained liquid culture medium and ranges of decreasing concentrations of the relevant test compound in doubling dilutions (e.g. 1000, 500, 250, 125 . . . μg/ml, etc. down to 0.49 μg/ml). The culture media were as described above.
(§5) The wells were inoculated with a liquid suspension of freshly grown micro-organism and incubated under the conditions described above. After incubation, the microtitre plate was examined visually (with the aid of a light box) for cloudiness in each well, which would indicate microbial growth. The MIC value was recorded as the lowest concentration of test compound required to inhibit microbial growth, i.e. the lowest concentration for which the liquid in the well remained clear.
(§6) The assays included both negative (culture medium with no micro-organisms) and positive (culture medium plus diluting solvent plus micro-organism) controls.

[13] = tested on: S. saprophyticus NCTC 7292; assay: MIC assay; type: cell-based; conditions: Staphylococcus saprophyticus, NCTC7292
Procedure: as §3, §4, §5, §6

S. aureus NCTC 12981 = assay: MIC assay; type: cell-based; conditions: Staphylococcus aureus, NCTC12981
Procedure: as §3, §4, §5, §6

[14] = tested on: Staphylococcus aureus ATCC 12600; assay: MIC assay; type: cell-based; conditions: ATCC12600
Procedure: as §3, §4, §5, §6

[15] = tested on: Staphylococcus simulans ATCC 27848; assay: MIC assay; type: cell-based; conditions: ATCC27848
Procedure: as §3, §4, §5, §6

S. aureus ATCC 12605 [16] = assay: MIC assay; type: cell-based; conditions: Staphylococcus aureus, ATCC12605
Procedure: as §3, §4, §5, §6

[17] = tested on: Staphylococcus xylosus ATCC 29971; assay: MIC assay; type: cell-based; conditions: ATCC29971
Procedure: as §3, §4, §5, §6

S. aureus ATCC 12607 = assay: MBC assay; type: cell-based, Staphylococcus aureus
Procedure: as §3, §1, §2

S. aureus CPHL EMRSA 17 = assay: MBC assay; type: cell-based, Staphylococcus aureus; conditions: resistance phenotype Met/β-lactams
Procedure: as §3, §1, §2

S. aureus ATCC 12605 [18] = assay: MBC assay; type: cell-based, Staphylococcus aureus
Procedure: as §3, §1, §2

[19] = tested on: Porphyromonas gingivalis ATCC 53978; assay: MBC assay; type: cell-based
Procedure: (§7) The P. gingivalis strains were cultured and maintained on Wilkins-Chalgren Anaerobe Medium (agar and broth) at pH 7.0; all cultures were incubated anaerobically at 37° C. for 5-7 days.
as §1, §2

[20] = tested on: Porphyromonas gingivalis NCTC 11834; assay: MBC assay; type: cell-based
Procedure: as §7, §1, §2

[21] = tested on: Porphyromonas gingivalis ATCC BAA-308; assay: MBC assay; type: cell-based
Procedure: as §7, §1, §2

[22] = tested on: Streptococcus mutans ATCC 35668; assay: MBC assay; type: cell-based
Procedure: (§8) The S. mutans strains were cultured and maintained on Wilkins-Chalgren Anaerobe Medium (agar and broth) at pH 7.0 supplemented with 1 g/L glucose; all cultures were incubated at 37° C. for 48 h in an atmosphere containing 5% CO2.
as §1, §2

[23] = tested on: Streptococcus mutans ATCC 25175; assay: MBC assay; type: cell-based
Procedure: as §8, §1, §2

[24] = tested on: acyl-CoA: cholesterol acyltransferase (ACAT); conditions: compound isolated from Aspergillus fumigatus, believed to be Antioxidant 2246; cited from earlier work

## Cc1cc(Cc2cc(C)cc(C(C)(C)C)c2O)c(O)c(C(C)(C)C)c1 [AO 2246, 2,2′-methylene-bis(4-methyl-6-tert-butylphenol)]
[1]
  MIC/MBC Ratio: <0.5
[1]; ATCC33563
  MBC: > 15.6 µg/mL
[2]; Corynebacterium mucifaciens ATCC 700355
  MBC: 3.9 µg/mL (≈ 11.5 µM)
[2]; Corynebacterium mucifaciens
  MIC/MBC Ratio: 0.5
[3]
  MIC/MBC Ratio: 1
[3]; ATCC12344
  MBC: 0.98 µg/mL (≈ 2.88 µM)
[4]
  MIC/MBC Ratio: 0.25
[4]; ATCC15313
  MBC: 7.8 µg/mL (≈ 22.9 µM)
[5]
  MIC/MBC Ratio: 0.5
[5]; ATCC12104
  MBC: 3.9 µg/mL (≈ 11.5 µM)
[6]
  MIC/MBC Ratio: 1
[6]; ATCC14018
  MBC: 15.6 µg/mL (≈ 45.8 µM)
[7]; Enterococcus faecalis ATCC 29212
  MBC: 7.8 µg/mL (≈ 22.9 µM)
[7]; Enterococcus faecalis
  MIC/MBC Ratio: 0.25
[8]
  MIC/MBC Ratio: 1
[8]; Clostridioides difficile, ATCC7000057
  MBC: 3.9 µg/mL (≈ 11.5 µM)
[9]
  MIC/MBC Ratio: 0.125
[9]; ATCC3584
  MBC: 31.2 µg/mL (≈ 91.8 µM)
[10]
  MIC/MBC Ratio: 0.5
[10]; ATCC11778
  MBC: 3.9 µg/mL (≈ 11.5 µM)
[11]
  MIC/MBC Ratio: 0.5
[11]; ATCC33478
  MBC: 31.2 µg/mL (≈ 91.8 µM)
[12]
  MIC: 3.9 µg/mL (≈ 11.5 µM)
[13]
  MIC: 3.9 µg/mL (≈ 11.5 µM)
S. aureus NCTC 12981
  MIC: 1.95 µg/mL (≈ 5.73 µM)
[14]
  MIC: 0.98 µg/mL (≈ 2.88 µM)
[15]
  MIC: 15.6 µg/mL (≈ 45.8 µM)
S. aureus ATCC 12605 [16]
  MIC: 1.95 µg/mL (≈ 5.73 µM)
[17]
  MIC: 3.9 µg/mL (≈ 11.5 µM)
S. aureus ATCC 12607
  MIC/MBC Ratio: 0.25
S. aureus ATCC 12607; Staphylococcus aureus, ATCC12607
  MBC: 7.8 µg/mL (≈ 22.9 µM)
S. aureus CPHL EMRSA 17; Staphylococcus aureus
  MBC: 7.8 µg/mL (≈ 22.9 µM)
S. aureus CPHL EMRSA 17
  MIC/MBC Ratio: 0.25
S. aureus ATCC 12605 [18]
  MIC/MBC Ratio: 1
S. aureus ATCC 12605 [18]; Staphylococcus aureus, ATCC12605
  MBC: 1.95 µg/mL (≈ 5.73 µM)
[19]
  MBC: 1.95 µg/mL (≈ 5.73 µM)
  MIC/MBC Ratio: 0.5
[20]
  MIC/MBC Ratio: 1
[20]; NCTC11834
  MBC: 3.9 µg/mL (≈ 11.5 µM)
[21]
  MIC/MBC Ratio: 1
[21]; ATCCBAA308
  MBC: 3.9 µg/mL (≈ 11.5 µM)
[22]
  MIC/MBC Ratio: 0.25
[22]; ATCC35668
  MBC: 31.2 µg/mL (≈ 91.8 µM)
[23]
  MIC/MBC Ratio: 0.5
[23]; ATCC25175
  MBC: 62.5 µg/mL (≈ 184 µM)
[24]
  inhibitor of the enzyme ACAT: inhibitor
